Test results reported in US8134015B2, “Compound inhibiting in vivo phosphorous transport and medicine containing the same” (Kyowa Hakko Kirin Co., Ltd., priority 2003, dated 2012).

molecular target: T1, rat NaPi-2b (Rattus norvegicus, UniProt Q9JJ09); experiment: Sodium-dependent phosphate uptake of Xenopus oocytes which expressed NaPi-2b (32P); format: cell-based; details: Xenopus oocytes expressing rat NaPi-2b, 32P radioactive phosphorus; read-out: IC50 (phosphate uptake inhibitory activity)
T1 construct: expressed in transfected cells; host or cells: Xenopus oocytes injected with cRNA
T1 sequence (Q9JJ09 1-695): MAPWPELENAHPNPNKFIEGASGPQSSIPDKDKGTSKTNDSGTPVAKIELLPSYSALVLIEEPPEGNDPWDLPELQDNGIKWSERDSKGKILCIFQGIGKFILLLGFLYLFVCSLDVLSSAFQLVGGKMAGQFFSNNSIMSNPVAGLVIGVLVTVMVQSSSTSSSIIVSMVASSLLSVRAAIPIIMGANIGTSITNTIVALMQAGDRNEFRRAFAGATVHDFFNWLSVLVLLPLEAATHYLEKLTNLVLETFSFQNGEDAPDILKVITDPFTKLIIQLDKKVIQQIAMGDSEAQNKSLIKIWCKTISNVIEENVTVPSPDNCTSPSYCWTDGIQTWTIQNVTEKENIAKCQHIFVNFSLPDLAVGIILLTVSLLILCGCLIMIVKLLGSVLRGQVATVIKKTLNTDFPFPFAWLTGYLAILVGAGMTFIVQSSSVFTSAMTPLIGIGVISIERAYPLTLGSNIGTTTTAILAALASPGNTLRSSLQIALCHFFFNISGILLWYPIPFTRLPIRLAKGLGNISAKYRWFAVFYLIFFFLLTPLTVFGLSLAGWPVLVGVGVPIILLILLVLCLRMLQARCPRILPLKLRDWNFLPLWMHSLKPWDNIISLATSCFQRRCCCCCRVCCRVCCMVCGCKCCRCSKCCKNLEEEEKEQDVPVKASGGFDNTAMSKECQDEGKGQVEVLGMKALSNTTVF
Description: Pharmacological Test Example 1
Experiment of Sodium-Dependent Phosphate Uptake of Xenopus oocytes which Expressed NaPi-2b
Degenerate primers were prepared from sequences of mouse NaPi-2b disclosed in Hilfiker H. et al., Pro Natl Acad Sci USA, 95 (24): 14564-14569, […] and sequences of human and rat NaPi-2a disclosed in Magagnin S. et al., Proc Natl Aca Sci USA, 90 (13): 5979-5983, 1993. RNA was extracted from the rat small intestine using ISOGEN; manufactured by NIPPON GENE CO., LTD (Japan). 400 bp gene fragments were obtained by PCR using, as a template, a cDNA library prepared with a cDNA synthesis kit (manufactured by STRATAGENE (US)). Thereafter, the above rat small intestine cDNA library was screened using the gene fragment as a probe, and the whole gene sequence of rat NaPi-2b was cloned. cRNA was synthesized from the cloned rat NaPi-2b cDNA with a cRNA synthesis kit (manufactured by Ambion (US)). The synthesized cRNA was injected into Xenopus oocytes (obtained from COPACETIC (Japan)) with a liquid microinjector (manufactured by Drummond (US)) and was cultured for 2 days to express rat NaPi-2b. Thereafter, for a group of derivatives, phosphate uptake inhibitory activity were measured using the Xenopus oocytes with ^32P radioactive phosphorus (manufactured by Daiichi Kagaku Inc. (Japan)). […] The inhibitory activity for 300 μM and 100 μM was determined from the same inhibition curve and expressed in percentage inhibition (%) in Table 5.

Point of comparison: O=C(Nc1ccccc1C(=O)N/N=C/c1cccc(O)c1)c1ccc(F)cc1 [Compound 80, 4-Fluoro-N-[2-(3-hydroxy-benzylidene-hydrazinocarbonyl)-phenyl]-benzamide], IC50 10.9 µM. Against it:
- COc1ccc(C(=O)Nc2ccc(Cl)cc2C(=O)N/N=C/c2cccc(C)c2)cc1OC [Compound 67, N-[4-Chloro-2-(3-methyl-benzylidene-hydrazinocarbonyl)-phenyl]-3,4-dimethoxy-benzamide] — 17-fold lower, 0.65 µM
- COc1ccc(C(=O)Nc2ccc(Cl)cc2C(=O)N/N=C/c2cccc(O)c2)cc1OC [Compound 69, N-[4-Chloro-2-(3-hydroxy-benzylidene-hydrazinocarbonyl)-phenyl]-3,4-dimethoxy-benzamide] — 2.8-fold lower, 3.93 µM
- COc1ccc(C(=O)Nc2ccc(Cl)cc2C(=O)N/N=C/c2ccc(O)cc2)cc1OC [Compound 70, N-[4-Chloro-2-(4-hydroxy-benzylidene-hydrazinocarbonyl)-phenyl]-3,4-dimethoxy-benzamide] — within 1.5-fold, 9.51 µM
- COc1ccc(C(=O)Nc2cc(Cl)ccc2C(=O)N/N=C/c2cccc(F)c2)cc1OC [Compound 71, N-[5-Chloro-2-(3-fluoro-benzylidene-hydrazinocarbonyl)-phenyl]-3,4-dimethoxy-benzamide] — within 1.5-fold, 12.3 µM
- COc1ccc(C(=O)Nc2cc(Cl)ccc2C(=O)N/N=C/c2ccc(F)cc2)cc1OC [Compound 72, N-[5-Chloro-2-(4-fluoro-benzylidene-hydrazinocarbonyl)-phenyl]-3,4-dimethoxy-benzamide] — within 1.5-fold, 10.4 µM
- COc1ccc(C(=O)Nc2cc(Cl)ccc2C(=O)N/N=C/c2cccc(C)c2)cc1OC [Compound 73, N-[5-Chloro-2-(3-methyl-benzylidene-hydrazinocarbonyl)-phenyl]-3,4-dimethoxy-benzamide] — 6.2-fold lower, 1.75 µM
- COc1ccc(C(=O)Nc2cc(Cl)ccc2C(=O)N/N=C/c2ccc(C)cc2)cc1OC [Compound 74, N-[5-Chloro-2-(4-methyl-benzylidene-hydrazinocarbonyl)-phenyl]-3,4-dimethoxy-benzamide] — 5.1-fold lower, 2.15 µM
- COc1ccc(C(=O)Nc2cc(Cl)ccc2C(=O)N/N=C/c2cccc(O)c2)cc1OC [Compound 75, N-[5-Chloro-2-(3-hydroxy-benzylidene-hydrazinocarbonyl)-phenyl]-3,4-dimethoxy-benzamide] — within 1.5-fold, 12.8 µM
- O=C(Nc1ccccc1C(=O)N/N=C/c1cccc(F)c1)c1ccc(F)cc1 [Compound 76, 4-Fluoro-N-[2-(3-fluoro-benzylidene-hydrazinocarbonyl)-phenyl]-benzamide] — within 1.5-fold, 13.2 µM
- O=C(Nc1ccccc1C(=O)N/N=C/c1ccc(F)cc1)c1ccc(F)cc1 [Compound 77, 4-Fluoro-N-[2-(4-fluoro-benzylidene-hydrazinocarbonyl)-phenyl]-benzamide] — 3.6-fold lower, 3.01 µM
- Cc1cccc(/C=N/NC(=O)c2ccccc2NC(=O)c2ccc(F)cc2)c1 [Compound 78, 4-Fluoro-N-[2-(3-methyl-benzylidene-hydrazinocarbonyl)-phenyl]-benzamide] — 1.5-fold lower, 7.17 µM
- Cc1ccc(/C=N/NC(=O)c2ccccc2NC(=O)c2ccc(F)cc2)cc1 [Compound 79, 4-Fluoro-N-[2-(4-methyl-benzylidene-hydrazinocarbonyl)-phenyl]-benzamide] — 3.8-fold lower, 2.87 µM
- O=C(Nc1ccccc1C(=O)N/N=C/c1cccc(F)c1)c1cccc(F)c1 [Compound 81, 3-Fluoro-N-[2-(3-fluoro-benzylidene-hydrazinocarbonyl)-phenyl]-benzamide] — 1.9-fold lower, 5.65 µM
- O=C(Nc1ccccc1C(=O)N/N=C/c1ccc(F)cc1)c1cccc(F)c1 [Compound 82, 3-Fluoro-N-[2-(4-fluoro-benzylidene-hydrazinocarbonyl)-phenyl]-benzamide] — 1.8-fold lower, 6.03 µM
- Cc1cccc(/C=N/NC(=O)c2ccccc2NC(=O)c2cccc(F)c2)c1 [Compound 83, 3-Fluoro-N-[2-(3-methyl-benzylidene-hydrazinocarbonyl)-phenyl]-benzamide] — 3.7-fold lower, 2.98 µM
- Cc1ccc(/C=N/NC(=O)c2ccccc2NC(=O)c2cccc(F)c2)cc1 [Compound 84, 3-Fluoro-N-[2-(4-methyl-benzylidene-hydrazinocarbonyl)-phenyl]-benzamide] — within 1.5-fold, 8.42 µM
- O=C(Nc1ccccc1C(=O)N/N=C/c1cccc(O)c1)c1cccc(F)c1 [Compound 85, 3-Fluoro-N-[2-(3-hydroxy-benzylidene-hydrazinocarbonyl)-phenyl]-benzamide] — 5.5-fold lower, 2 µM
- O=C(Nc1ccccc1C(=O)N/N=C/c1ccc(O)cc1)c1cccc(F)c1 [Compound 86, 3-Fluoro-N-[2-(4-hydroxy-benzylidene-hydrazinocarbonyl)-phenyl]-benzamide] — within 1.5-fold, 11.4 µM
- COc1ccc(C(=O)Nc2ccc(Br)cc2C(=O)N/N=C/c2ccc(Cl)c(C(F)(F)F)c2)cc1OC [Compound 87, N-[4-Bromo-2-(4-chloro-3-trifluoromethyl-benzylidene-hydrazinocarbonyl)-phenyl]-3,4-dimethoxy-benzamide] — 38-fold lower, 0.29 µM
- COc1cc(OC)cc(C(=O)Nc2ccccc2C(=O)N/N=C/c2ccc(Cl)c(C(F)(F)F)c2)c1 [Compound 89, N-[2-(4-Chloro-3-trifluoromethyl-benzylidene-hydrazinocarbonyl)-phenyl]-3,5-dimethoxy-benzamide] — 9.8-fold lower, 1.11 µM
- COc1ccc(C(=O)Nc2ccccc2C(=O)N/N=C/c2ccc(Cl)c(C(F)(F)F)c2)cc1 [Compound 90, N-[2-(4-Chloro-3-trifluoromethyl-benzylidene-hydrazinocarbonyl)-phenyl]-4-methoxy-benzamide] — 3.2-fold lower, 3.42 µM
- COc1cc(OC)cc(C(=O)Nc2ccccc2C(=O)N/N=C/c2ccc(C)c(C)c2)c1 [Compound 93, N-[2-(3,4-Dimethyl-benzylidene-hydrazinocarbonyl)-phenyl]-3,5-dimethoxy-benzamide] — within 1.5-fold, 11 µM
- COc1ccc(C(=O)Nc2ccccc2C(=O)N/N=C/c2ccc(C)c(C)c2)cc1 [Compound 94, N-[2-(3,4-Dimethyl-benzylidene-hydrazinocarbonyl)-phenyl]-4-methoxy-benzamide] — 1.9-fold lower, 5.63 µM
- Cc1ccc(/C=N/NC(=O)c2ccccc2NC(=O)c2cccc(F)c2)cc1C [Compound 95, N-[2-(3,4-Dimethyl-benzylidene-hydrazinocarbonyl)-phenyl]-3-fluoro-benzamide] — 8.6-fold lower, 1.27 µM
- Cc1ccc(/C=N/NC(=O)c2ccccc2NC(=O)c2ccc(F)cc2)cc1C [Compound 96, N-[2-(3,4-Dimethyl-benzylidene-hydrazinocarbonyl)-phenyl]-4-fluoro-benzamide] — 1.8-fold lower, 5.94 µM
- COc1ccc(/C=N/NC(=O)c2cc(Br)ccc2NC(=O)c2ccc(OC)c(OC)c2)cc1Br [Compound 97, N-[4-Bromo-2-(3-bromo-4-methoxy-benzylidene-hydrazinocarbonyl)-phenyl]-3,4-dimethoxy-benzamide] — 21-fold lower, 0.51 µM
- COc1ccc(/C=N/NC(=O)c2cc(Cl)ccc2NC(=O)c2ccc(OC)c(OC)c2)cc1Br [Compound 98, N-[2-(3-Bromo-4-methoxy-benzylidene-hydrazinocarbonyl)-4-chloro-phenyl]-3,4-dimethoxy-benzamide] — 18-fold lower, 0.62 µM
- COc1cc(OC)cc(C(=O)Nc2ccccc2C(=O)N/N=C/c2ccc(OC)c(Br)c2)c1 [Compound 99, N-[2-(3-Bromo-4-methoxy-benzylidene-hydrazinocarbonyl)-phenyl]-3,5-dimethoxy-benzamide] — 3.6-fold lower, 3.03 µM
- COc1ccc(C(=O)Nc2ccccc2C(=O)N/N=C/c2ccc(OC)c(Br)c2)cc1 [Compound 100, N-[2-(3-Bromo-4-methoxy-benzylidene-hydrazinocarbonyl)-phenyl]-4-methoxy-benzamide] — 17-fold lower, 0.64 µM
- COc1ccc(/C=N/NC(=O)c2ccccc2NC(=O)c2cccc(F)c2)cc1Br [Compound 101, N-[2-(3-Bromo-4-methoxy-benzylidene-hydrazinocarbonyl)-phenyl]-3-fluoro-benzamide] — 15-fold lower, 0.75 µM
- COc1ccc(/C=N/NC(=O)c2ccccc2NC(=O)c2ccc(F)cc2)cc1Br [Compound 102, N-[2-(3-Bromo-4-methoxy-benzylidene-hydrazinocarbonyl)-phenyl]-4-fluoro-benzamide] — 2-fold lower, 5.58 µM
